Test results from ChEMBL document CHEMBL4765237, “Structural optimization and structure-activity relationship studies of N-phenyl-7,8-dihydro-6H-pyrimido[5,4-b][1,4]oxazin-4-amine derivatives as a new class of inhibitors of RET and its drug resistance mutants” (Eur J Med Chem, 2018).

Experiments:
[1] = Toxicity in NOD-SCID mouse xenografted with […] cells harboring RET C634Y mutant assessed as reduction in body weight at 10 to 30 mg/kg, po administered for 18 days and measured on day 18; type: organism-based; conditions: in vivo, 432 h, dose 10-30 mg/kg, time 18 day
[2] = target: NT-3 growth factor receptor (Homo sapiens, UniProt Q16288); test: Inhibition of recombinant human TRKC (510 to end residues) using GEEPLYWSFPAKKK as substrate incubated for 40 mins in presence of [gamma33P]ATP by scintillation counting based radiometry assay
Sequence of NT-3 growth factor receptor (Q16288 whole entry): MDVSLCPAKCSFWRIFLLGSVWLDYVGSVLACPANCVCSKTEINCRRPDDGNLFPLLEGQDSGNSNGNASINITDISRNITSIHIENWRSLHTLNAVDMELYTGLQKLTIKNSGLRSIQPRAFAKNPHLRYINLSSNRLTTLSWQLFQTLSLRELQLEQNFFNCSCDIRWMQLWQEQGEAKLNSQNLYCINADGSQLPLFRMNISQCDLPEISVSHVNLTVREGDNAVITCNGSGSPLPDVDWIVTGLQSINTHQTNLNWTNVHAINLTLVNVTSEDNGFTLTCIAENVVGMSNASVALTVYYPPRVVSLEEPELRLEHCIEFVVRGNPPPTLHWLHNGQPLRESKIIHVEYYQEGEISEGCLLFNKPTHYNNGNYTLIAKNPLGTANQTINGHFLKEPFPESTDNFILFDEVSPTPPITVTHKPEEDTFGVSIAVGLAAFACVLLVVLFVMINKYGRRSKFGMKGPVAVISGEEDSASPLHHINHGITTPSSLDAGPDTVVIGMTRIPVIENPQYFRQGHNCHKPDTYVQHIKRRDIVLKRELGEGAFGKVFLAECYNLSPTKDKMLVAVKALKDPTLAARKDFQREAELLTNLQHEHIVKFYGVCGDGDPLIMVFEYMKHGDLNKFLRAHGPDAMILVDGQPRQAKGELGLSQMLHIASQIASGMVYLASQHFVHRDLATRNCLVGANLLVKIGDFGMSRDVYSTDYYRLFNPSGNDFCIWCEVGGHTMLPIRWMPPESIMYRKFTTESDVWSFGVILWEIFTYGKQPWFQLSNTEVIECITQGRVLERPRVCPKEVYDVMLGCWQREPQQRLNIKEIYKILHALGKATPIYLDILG

Ephrin type-A receptor 3 = Ephrin type-A receptor 3 (Homo sapiens, UniProt P29320); test: Inhibition of recombinant human EphA3 (578 to end residues) using poly(Glu, Tyr) 4:1 as substrate incubated for 40 mins in presence of [gamma-33ATP] by scintillation counting based radiometry assay
Sequence of Ephrin type-A receptor 3 (P29320 whole entry): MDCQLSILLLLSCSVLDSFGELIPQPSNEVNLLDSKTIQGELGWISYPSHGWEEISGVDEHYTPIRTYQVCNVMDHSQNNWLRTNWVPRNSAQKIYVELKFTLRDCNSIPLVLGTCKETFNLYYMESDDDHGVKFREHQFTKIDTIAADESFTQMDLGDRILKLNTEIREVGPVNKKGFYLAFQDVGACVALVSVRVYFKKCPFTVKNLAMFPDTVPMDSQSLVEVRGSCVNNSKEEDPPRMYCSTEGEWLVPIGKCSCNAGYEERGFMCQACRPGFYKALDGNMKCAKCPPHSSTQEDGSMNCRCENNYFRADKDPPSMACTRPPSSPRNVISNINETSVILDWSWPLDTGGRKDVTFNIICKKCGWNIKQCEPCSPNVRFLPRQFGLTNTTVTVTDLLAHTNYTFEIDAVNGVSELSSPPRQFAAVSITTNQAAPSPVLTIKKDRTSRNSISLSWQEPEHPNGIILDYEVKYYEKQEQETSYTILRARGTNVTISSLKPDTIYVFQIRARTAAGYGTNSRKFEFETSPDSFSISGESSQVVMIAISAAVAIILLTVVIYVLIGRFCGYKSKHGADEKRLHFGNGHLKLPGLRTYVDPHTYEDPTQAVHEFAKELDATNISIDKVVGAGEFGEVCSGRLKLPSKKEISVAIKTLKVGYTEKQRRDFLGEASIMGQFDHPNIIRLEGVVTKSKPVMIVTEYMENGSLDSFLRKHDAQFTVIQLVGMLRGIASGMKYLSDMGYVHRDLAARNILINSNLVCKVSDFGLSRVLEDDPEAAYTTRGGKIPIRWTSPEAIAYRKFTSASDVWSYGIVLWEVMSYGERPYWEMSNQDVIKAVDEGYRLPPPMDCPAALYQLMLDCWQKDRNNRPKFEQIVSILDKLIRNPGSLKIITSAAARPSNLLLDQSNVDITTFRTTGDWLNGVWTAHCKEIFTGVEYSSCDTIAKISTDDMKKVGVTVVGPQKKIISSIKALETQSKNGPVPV

[3] = Half life in Sprague-Dawley rat at 10 mg/kg, po measured upto 24 hrs by LC-MS/MS analysis; type: ADME, organism-based; conditions: in vivo
[4] = target: Proto-oncogene tyrosine-protein kinase receptor Ret (Homo sapiens, UniProt P07949, V804M)
Sequence of Proto-oncogene tyrosine-protein kinase receptor Ret (P07949 29-1114 V804M limits assumed): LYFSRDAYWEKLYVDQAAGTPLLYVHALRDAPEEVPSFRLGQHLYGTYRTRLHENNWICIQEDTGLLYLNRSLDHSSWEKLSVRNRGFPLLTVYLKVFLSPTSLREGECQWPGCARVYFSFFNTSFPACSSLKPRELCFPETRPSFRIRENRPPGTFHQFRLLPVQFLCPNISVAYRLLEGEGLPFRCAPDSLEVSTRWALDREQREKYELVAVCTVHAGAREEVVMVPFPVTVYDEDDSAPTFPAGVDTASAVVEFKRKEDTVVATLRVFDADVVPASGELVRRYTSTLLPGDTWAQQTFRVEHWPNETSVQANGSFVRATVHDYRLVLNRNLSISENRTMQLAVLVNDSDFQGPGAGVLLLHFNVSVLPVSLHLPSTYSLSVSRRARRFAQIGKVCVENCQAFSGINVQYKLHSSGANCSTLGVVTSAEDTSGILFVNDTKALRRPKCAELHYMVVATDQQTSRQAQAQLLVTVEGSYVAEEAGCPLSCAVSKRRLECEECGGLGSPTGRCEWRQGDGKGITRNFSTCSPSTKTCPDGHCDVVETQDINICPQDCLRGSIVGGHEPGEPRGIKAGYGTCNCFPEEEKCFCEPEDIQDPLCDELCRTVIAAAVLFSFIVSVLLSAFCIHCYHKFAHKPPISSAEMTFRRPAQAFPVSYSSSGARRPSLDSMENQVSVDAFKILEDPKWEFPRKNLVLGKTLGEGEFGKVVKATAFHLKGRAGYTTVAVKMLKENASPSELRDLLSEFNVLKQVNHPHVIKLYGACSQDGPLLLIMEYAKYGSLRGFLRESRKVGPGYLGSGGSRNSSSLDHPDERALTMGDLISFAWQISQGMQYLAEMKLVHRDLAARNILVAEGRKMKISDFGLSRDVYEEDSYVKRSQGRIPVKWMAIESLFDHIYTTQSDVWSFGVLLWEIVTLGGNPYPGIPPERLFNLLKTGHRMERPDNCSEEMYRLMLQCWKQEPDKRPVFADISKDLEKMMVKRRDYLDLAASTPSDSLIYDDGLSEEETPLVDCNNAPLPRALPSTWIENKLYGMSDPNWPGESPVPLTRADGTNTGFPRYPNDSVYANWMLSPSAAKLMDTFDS

[5] = target: Tyrosine-protein kinase Lyn (Homo sapiens, UniProt P07948); test: Inhibition of recombinant human Lyn using poly(Glu, Tyr) 4:1 as substrate after 40 mins in presence of [gamma-33ATP] by scintillation counting based radiometry assay
Sequence of Tyrosine-protein kinase Lyn (P07948 whole entry): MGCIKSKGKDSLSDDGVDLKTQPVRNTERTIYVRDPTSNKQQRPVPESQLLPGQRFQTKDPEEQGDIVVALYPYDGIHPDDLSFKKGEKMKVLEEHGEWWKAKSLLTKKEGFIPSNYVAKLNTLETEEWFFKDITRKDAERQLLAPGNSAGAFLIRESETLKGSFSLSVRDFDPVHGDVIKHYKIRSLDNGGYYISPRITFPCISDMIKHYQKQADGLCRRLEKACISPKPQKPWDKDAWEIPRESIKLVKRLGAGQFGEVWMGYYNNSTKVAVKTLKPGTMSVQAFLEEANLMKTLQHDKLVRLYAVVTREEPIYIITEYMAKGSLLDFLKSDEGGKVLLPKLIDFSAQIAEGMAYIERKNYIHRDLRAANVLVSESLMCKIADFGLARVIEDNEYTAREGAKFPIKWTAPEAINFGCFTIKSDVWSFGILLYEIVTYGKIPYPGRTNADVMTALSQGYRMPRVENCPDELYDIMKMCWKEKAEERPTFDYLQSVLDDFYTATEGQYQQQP

[6] = Growth inhibition of human C643 cells incubated for 3 days by MTT assay; type: functional; conditions: C643, 72 h, time 3 day
[7] = target: MAP kinase-interacting serine/threonine-protein kinase 2 (Homo sapiens, UniProt Q9HBH9); test: Inhibition of recombinant human MNK2 using myelin basic protein as substrate incubated for 40 mins in presence of [gamma-33ATP by scintillation counting based radiometry assay
Sequence of MAP kinase-interacting serine/threonine-protein kinase 2 (Q9HBH9 whole entry): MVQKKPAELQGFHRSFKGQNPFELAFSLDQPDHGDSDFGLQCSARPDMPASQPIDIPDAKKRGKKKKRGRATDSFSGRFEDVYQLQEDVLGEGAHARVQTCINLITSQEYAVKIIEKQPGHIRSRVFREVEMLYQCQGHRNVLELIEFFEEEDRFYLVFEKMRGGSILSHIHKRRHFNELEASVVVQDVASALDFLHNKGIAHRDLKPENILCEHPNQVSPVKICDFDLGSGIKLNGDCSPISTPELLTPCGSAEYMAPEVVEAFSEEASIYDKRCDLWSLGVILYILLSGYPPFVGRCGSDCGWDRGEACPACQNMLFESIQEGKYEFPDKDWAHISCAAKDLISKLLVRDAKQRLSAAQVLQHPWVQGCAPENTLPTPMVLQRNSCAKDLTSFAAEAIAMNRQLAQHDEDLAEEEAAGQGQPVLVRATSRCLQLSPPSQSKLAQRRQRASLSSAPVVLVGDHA

[8] = target: Vascular endothelial growth factor receptor 3 (Homo sapiens, UniProt P35916); test: Inhibition of recombinant human FLT4 (800 to end residues) using GGEEEEYFELVKKKK as substrate incubated for 40 mins in presence of [gamma-33ATP] by scintillation counting based radiometry assay
[9] = target: Mitogen-activated protein kinase kinase kinase kinase 5 (Homo sapiens, UniProt Q9Y4K4); test: Inhibition of recombinant human MAP4K5 using myelin basic protein as substrate incubated for 40 mins in presence of [gamma-33ATP by scintillation counting based radiometry assay
[10] = target: Homeodomain-interacting protein kinase 4 (Homo sapiens, UniProt Q8NE63); test: Inhibition of human HIPK4 using RRRFRPASPLRGPPK as substrate after 40 mins by [gamma-33ATP] radiometric assay
Sequence of Homeodomain-interacting protein kinase 4 (Q8NE63 whole entry): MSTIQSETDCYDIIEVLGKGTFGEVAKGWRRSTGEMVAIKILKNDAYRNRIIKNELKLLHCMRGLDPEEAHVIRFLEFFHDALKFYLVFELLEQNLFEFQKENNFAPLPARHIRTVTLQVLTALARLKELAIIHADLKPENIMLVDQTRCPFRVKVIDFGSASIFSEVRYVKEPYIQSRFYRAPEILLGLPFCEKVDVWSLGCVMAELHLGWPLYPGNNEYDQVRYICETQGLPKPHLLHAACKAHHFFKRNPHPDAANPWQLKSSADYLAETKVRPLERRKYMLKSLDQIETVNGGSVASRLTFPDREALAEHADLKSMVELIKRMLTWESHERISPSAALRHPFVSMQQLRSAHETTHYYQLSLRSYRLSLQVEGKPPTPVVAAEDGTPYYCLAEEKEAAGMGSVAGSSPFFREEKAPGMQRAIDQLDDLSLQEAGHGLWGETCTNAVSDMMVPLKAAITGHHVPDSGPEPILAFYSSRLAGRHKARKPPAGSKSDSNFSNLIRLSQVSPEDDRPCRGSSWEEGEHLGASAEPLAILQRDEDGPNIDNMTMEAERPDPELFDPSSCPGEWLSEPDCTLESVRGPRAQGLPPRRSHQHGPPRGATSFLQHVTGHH

[11] = target: Mitogen-activated protein kinase 11 (Homo sapiens, UniProt Q15759); test: Inhibition of recombinant human full length SAPK2b using myelin basic protein as substrate incubated for 40 mins in presence of [gamma33P]ATP by scintillation counting based radiometry assay
Sequence of Mitogen-activated protein kinase 11 (Q15759 whole entry): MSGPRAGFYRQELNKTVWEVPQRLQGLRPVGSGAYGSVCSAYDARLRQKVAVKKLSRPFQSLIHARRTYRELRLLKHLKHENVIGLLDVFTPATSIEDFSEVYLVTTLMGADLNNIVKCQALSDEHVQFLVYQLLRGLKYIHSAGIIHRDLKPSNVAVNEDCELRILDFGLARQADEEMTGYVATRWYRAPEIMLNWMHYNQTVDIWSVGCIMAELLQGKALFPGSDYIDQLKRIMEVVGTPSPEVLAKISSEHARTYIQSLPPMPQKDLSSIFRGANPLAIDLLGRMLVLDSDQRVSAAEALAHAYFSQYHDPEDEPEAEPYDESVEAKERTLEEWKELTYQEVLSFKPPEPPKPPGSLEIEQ

HeLa = test: Growth inhibition of human HeLa cells incubated for 3 days by MTT assay; type: functional; conditions: 72 h, time 3 day
SGC-7901 = test: Growth inhibition of human SGC-7901 cells incubated for 3 days by MTT assay; type: functional; conditions: SGC-7901, 72 h, time 3 day
[12] = Growth inhibition of human HTH-83 cells incubated for 3 days by MTT assay; type: functional; conditions: HTh83, 72 h, time 3 day
BaF3 [13] = test: Growth inhibition of mouse BaF3 cells incubated for 3 days by MTT assay; type: functional; conditions: BaF3, 72 h, time 3 day
[14] = Clearance in Sprague-Dawley rat at 10 mg/kg, po measured upto 24 hrs by LC-MS/MS analysis; type: ADME, organism-based; conditions: in vivo
MDA-MB-231 = test: Growth inhibition of human MDA-MB-231 cells incubated for 3 days by MTT assay; type: functional; conditions: MDA-MB-231, 72 h, time 3 day
BHT-101 = test: Growth inhibition of human BHT-101 cells incubated for 3 days by MTT assay; type: functional; conditions: BHT-101, 72 h, time 3 day
[15] = Cmax in Sprague-Dawley rat at 10 mg/kg, po measured upto 24 hrs by LC-MS/MS analysis; type: ADME, organism-based; set-up: route oral, dose 10 mg/kg, time <=24; conditions: in vivo
BaF3 [16] = test: Growth inhibition of mouse BaF3 cells harboring RET M918T mutant incubated for 3 days by MTT assay; type: functional; conditions: BaF3, 72 h, time 3 day

CC(C)(C)c1cc(NC(=O)Nc2ccc(Nc3ncnc4c3OCCCN4)cc2)no1
Activity [1]: Non-Toxic
IC50 [2]: 20 nM
IC50 (Ephrin type-A receptor 3): 552 nM
half-life [3]: 1.54 h
IC50 [4]: 15 nM
IC50 [5]: 122 nM
GI50 [6]: > 10000 nM
IC50 [7]: 136 nM
IC50 [8]: 6 nM
IC50 [9]: 711 nM
IC50 [10]: 127 nM
IC50 [11]: 50 nM
GI50 (HeLa): > 10000 nM
GI50 (SGC-7901): 7280 nM
GI50 [12]: > 10000 nM
GI50 (BaF3 [13]): > 10000 nM
CL/F [14]: 0.383 mL/min/kg
GI50 (MDA-MB-231): > 10000 nM
GI50 (BHT-101): > 10000 nM
Cmax [15]: 263 µg/mL
GI50 (BaF3 [16]): 870 nM
